The values that follow are results of earlier work, collected in PMC7168327, “Designed Antimicrobial Peptides for Topical Treatment of Antibiotic Resistant Acne Vulgaris” (Antibiotics, 2020).

What all share (details): cited from earlier work
The test system of data set [1] is C. acnes ATCC11827. An excerpt:
(§1) Table 1 Growth Inhibition of dAMPs (MICs, µg/mL) against C. acnes Isolates. | column: Antibiotic Sensitivity / Tetra ^#; Antibiotic Sensitivity / Ery ^#; Antibiotic Sensitivity / Clind ^#

Data set [2] has as its system C. acnes ATCC6919.
Text: as §1

Data set [3] relates to C. acnes HL007PA1.
Text: as §1

In data set [4] the test system is C. acnes HL013PA1.
Text: as §1

In data set [5] the test system is C. acnes HL038PA1.
Text: as §1

Data set [6] deals with C. acnes HL043PA1.
Text: as §1

Data set [7] relates to C. acnes HL043PA2.
Text: as §1

In data set [8] the test system is C. acnes HL045PA1.
Text: as §1

Data set [9] relates to C. acnes HL053PA1.
Text: as §1

The test system of data set [10] is C. acnes HL056PA1.
Text: as §1

Data set [11] concerns C. acnes HL072PA1.
Text: as §1

In data set [12] the test system is C. acnes HL082PA2.
Text: as §1

Turning to `CC[C@H]1OC(=O)[C@H](C)[C@@H](O[C@H]2C[C@@](C)(OC)[C@@H](O)[C@H](C)O2)[C@H](C)[C@@H](O[C@@H]2O[C@H](C)C[C@H](N(C)C)[C@H]2O)[C@](C)(O)C[C@@H](C)C(=O)[C@H](C)[C@@H](O)[C@]1(C)O` [Ery, erythromycin], the “Antibiotic Sensitivity, Ery” value in data set [1] is recorded as “S (S, sensitive)”; in data set [2], “S (S, sensitive)”; in [3] it was “R (erythromycin resistance MIC ≥ 0.5 μg/mL)”; in [4] it was “R (erythromycin resistance MIC ≥ 0.5 μg/mL)”; in data set [5], “R (erythromycin resistance MIC ≥ 0.5 μg/mL)”; in data set [6] it was “R (erythromycin resistance MIC ≥ 0.5 μg/mL)”. For the same compound, the “Antibiotic Sensitivity, Ery” value in data set [7], in data set [8], in [9], in [10], in data set [11] and in [12] was “R (erythromycin resistance MIC ≥ 0.5 μg/mL)” in each case.

With `CN(C)[C@@H]1C(O)=C(C(N)=O)C(=O)[C@@]2(O)C(O)=C3C(=O)c4c(O)cccc4[C@@](C)(O)[C@H]3C[C@@H]12` [Tetra, tetracycline], the “Antibiotic Sensitivity, Tetra” value in data set [1] is given as “S (S, sensitive)”; in data set [2], “S (S, sensitive)”; in data set [3] it was “R (resistance to tetracycline (Tetra), MIC ≥ 1.0 μg/mL)”; in data set [4], “R (resistance to tetracycline (Tetra), MIC ≥ 1.0 μg/mL)”; in data set [5] it was “R (resistance to tetracycline (Tetra), MIC ≥ 1.0 μg/mL)”; in data set [6], “R (resistance to tetracycline (Tetra), MIC ≥ 1.0 μg/mL)”. The “Antibiotic Sensitivity, Tetra” value in data set [7] was “R (resistance to tetracycline (Tetra), MIC ≥ 1.0 μg/mL)”; in data set [8], “R (resistance to tetracycline (Tetra), MIC ≥ 1.0 μg/mL)”; in data set [9], “R (resistance to tetracycline (Tetra), MIC ≥ 1.0 μg/mL)”; in data set [10] it was “R (resistance to tetracycline (Tetra), MIC ≥ 1.0 μg/mL)”; in data set [11], “R (resistance to tetracycline (Tetra), MIC ≥ 1.0 μg/mL)”; in data set [12], “R (resistance to tetracycline (Tetra), MIC ≥ 1.0 μg/mL)”.
